Measured values taken from patent US5202315A, “Cephalosporin compounds” (Lucky, Ltd., priority 1989, dated 1993).
Values after ≈ are worked out from the molar mass of the structure shown.

Experiments:
Assay in all cases: Antibacterial activity, MIC
Type in all cases: cell-based
[1] = system: Staphylococcus aureus ATCC 10537; conditions: ATCC10537, ATCC 10537, agar two-fold dilution, 37° C., 20 hours, read-out: MIC
Outline: (§1)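 Values reflect agar dilution testing: Mueller-Hinton medium, two-fold compound series, 2 μl inoculum of 10^7 CFU/ml, 20 h incubation at 37 °C.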

[2] = system: Proteus vulgaris ATCC 6059; conditions: ATCC6059, ATCC 6059, agar two-fold dilution, 37° C., 20 hours, read-out: MIC
Outline: as §1

[3] = system: Staphylococcus aureus ATCC 6538p; conditions: ATCC6538P, ATCC 6538p, agar two-fold dilution, 37° C., 20 hours, read-out: MIC
Outline: as §1

[4] = system: Acinetobacter calcoaceticus ATCC 15473; conditions: ATCC15473, ATCC 15473, agar two-fold dilution, 37° C., 20 hours, read-out: MIC
Outline: as §1

[5] = system: Escherichia coli ATCC 10536; conditions: ATCC10536, agar two-fold dilution, 37° C., 20 hours
Outline: as §1

[6] = system: Pseudomonas aeruginosa ATCC 25619; conditions: ATCC25619, ATCC 25619, agar two-fold dilution, 37° C., 20 hours, read-out: MIC
Outline: as §1

[7] = system: Providencia rettgeri ATCC 9250; conditions: ATCC9250, agar two-fold dilution, 37° C., 20 hours
Outline: as §1

[8] = system: Streptococcus faecalis ATCC 29212; conditions: Enterococcus faecalis, ATCC29212; ATCC 29212; agar two-fold dilution, 37° C., 20 hours; read-out: MIC
Outline: as §1

[9] = system: Proteus mirabilis ATCC 25933; conditions: ATCC25933, ATCC 25933, agar two-fold dilution, 37° C., 20 hours, read-out: MIC
Outline: as §1

[10] = system: Salmonella typhimurium ATCC 14028; conditions: Salmonella enterica; ATCC 14028; agar two-fold dilution, 37° C., 20 hours; read-out: MIC
Outline: as §1

[11] = system: Enterobacter aerogenes ATCC 29751; conditions: Klebsiella aerogenes, ATCC29751; ATCC 29751; agar two-fold dilution, 37° C., 20 hours; read-out: MIC
Outline: as §1

[12] = system: Shigella flexneri ATCC 11836; conditions: ATCC11836, agar two-fold dilution, 37° C., 20 hours
Outline: as §1

[13] = system: Escherichia coli ATCC 25922; conditions: ATCC25922, agar two-fold dilution, 37° C., 20 hours
Outline: as §1

[14] = system: Staphylococcus epidermidis ATCC 12228; conditions: ATCC12228, ATCC 12228, agar two-fold dilution, 37° C., 20 hours, read-out: MIC
Outline: as §1

[15] = system: Pseudomonas aeruginosa ATCC 27853; conditions: ATCC27853, ATCC 27853, agar two-fold dilution, 37° C., 20 hours, read-out: MIC
Outline: as §1

[16] = system: Enterobacter cloacae ATCC 27508; conditions: ATCC27508, ATCC 27508, agar two-fold dilution, 37° C., 20 hours, read-out: MIC
Outline: as §1

[17] = system: Bacillus megaterium ATCC 9885; conditions: Priestia megaterium, ATCC9885; ATCC 9885; agar two-fold dilution, 37° C., 20 hours; read-out: MIC
Outline: as §1

[18] = system: Shigella sonnei ATCC 11060; conditions: ATCC11060, ATCC 11060, agar two-fold dilution, 37° C., 20 hours, read-out: MIC
Outline: as §1

[19] = system: Pseudomonas aeruginosa ATCC 10145; conditions: ATCC10145, ATCC 10145, agar two-fold dilution, 37° C., 20 hours, read-out: MIC
Outline: as §1

[20] = system: Morganella morganii ATCC 8076h; conditions: ATCC8076H, agar two-fold dilution, 37° C., 20 hours
Outline: as §1

[21] = system: Serratia marcescens ATCC 27117; conditions: ATCC27117, ATCC 27117, agar two-fold dilution, 37° C., 20 hours, read-out: MIC
Outline: as §1

[22] = system: Micrococcus luteus ATCC 9341; conditions: ATCC9341, ATCC 9341, agar two-fold dilution, 37° C., 20 hours, read-out: MIC
Outline: as §1

[23] = system: Citrobacter freundii ATCC 8090; conditions: ATCC8090, ATCC 8090, agar two-fold dilution, 37° C., 20 hours, read-out: MIC
Outline: as §1

[24] = system: Klebsiella pneumoniae ATCC 10031; conditions: ATCC10031, ATCC 10031, agar two-fold dilution, 37° C., 20 hours, read-out: MIC
Outline: as §1

[25] = system: Bacillus cereus ATCC 11778; conditions: ATCC11778, ATCC 11778, agar two-fold dilution, 37° C., 20 hours, read-out: MIC
Outline: as §1

Row | Compound | MIC [1] [µg/mL] | MIC [2] [µg/mL] | MIC [3] [µg/mL] | MIC [4] [µg/mL] | MIC [5] [µg/mL] | MIC [6] [µg/mL] | MIC [7] [µg/mL] | MIC [8] [µg/mL] | MIC [9] [µg/mL] | MIC [10] [µg/mL] | MIC [11] [µg/mL] | MIC [12] [µg/mL] | MIC [13] [µg/mL] | MIC [14] [µg/mL] | MIC [15] [µg/mL] | MIC [16] [µg/mL] | MIC [17] [µg/mL] | MIC [18] [µg/mL] | MIC [19] [µg/mL] | MIC [20] [µg/mL] | also measured
1 | CC(C)(O/N=C(\C(=O)NC1C(=O)N2C(C(=O)[O-])=C(CSc3nc(N)cc(N)[n+]3-c3ccccc3)CSC12)c1csc(N)n1)C(=O)O (stereo not shown) [Compound I-35] | 2 (≈ 2.92 µM) | 0.13 (≈ 0.19 µM) | 4 (≈ 5.83 µM) | 16 (≈ 23.3 µM) | 0.25 (≈ 0.365 µM) | 2 (≈ 2.92 µM) | 0.031 (≈ 0.0452 µM) | > 128 | 0.25 (≈ 0.365 µM) | 0.5 (≈ 0.729 µM) | 0.5 (≈ 0.729 µM) | 0.13 (≈ 0.19 µM) | 0.25 (≈ 0.365 µM) | 2 (≈ 2.92 µM) | 2 (≈ 2.92 µM) | 0.063 (≈ 0.0919 µM) | 0.5 (≈ 0.729 µM) | 0.25 (≈ 0.365 µM) | 4 (≈ 5.83 µM) | ≤ 0.008 | MIC [21]: 0.5 µg/mL (≈ 0.729 µM); MIC [22]: 0.25 µg/mL (≈ 0.365 µM); MIC [23]: 0.25 µg/mL (≈ 0.365 µM); MIC [24]: 0.13 µg/mL (≈ 0.19 µM); MIC [25]: 16 µg/mL (≈ 23.3 µM)
2 | CC(C)(O/N=C(\C(=O)NC1C(=O)N2C(C(=O)[O-])=C(CSc3nc(N)cc(N)[n+]3-c3ccc(O)cc3)CSC12)c1csc(N)n1)C(=O)O (stereo not shown) [Compound I-36] | 2 (≈ 2.85 µM) | 0.13 (≈ 0.185 µM) | 4 (≈ 5.7 µM) | 16 (≈ 22.8 µM) | 0.25 (≈ 0.356 µM) | 1 (≈ 1.42 µM) | ≤ 0.008 | > 128 | 0.13 (≈ 0.185 µM) | 0.5 (≈ 0.712 µM) | 2 (≈ 2.85 µM) | 0.063 (≈ 0.0898 µM) | 0.25 (≈ 0.356 µM) | 2 (≈ 2.85 µM) | 1 (≈ 1.42 µM) | 0.063 (≈ 0.0898 µM) | 0.13 (≈ 0.185 µM) | 0.25 (≈ 0.356 µM) | 2 (≈ 2.85 µM) | ≤ 0.008 | MIC [21]: 0.5 µg/mL (≈ 0.712 µM); MIC [22]: 0.25 µg/mL (≈ 0.356 µM); MIC [23]: 0.25 µg/mL (≈ 0.356 µM); MIC [24]: 0.13 µg/mL (≈ 0.185 µM); MIC [25]: 32 µg/mL (≈ 45.6 µM)
3 | CCO/N=C(\C(=O)NC1C(=O)N2C(C(=O)[O-])=C(CSc3nc(N)cc(N)[n+]3-c3ccc(Cl)cc3)CSC12)c1csc(N)n1 (stereo not shown) [Compound I-40] | 0.25 (≈ 0.378 µM) | 0.5 (≈ 0.755 µM) | 0.5 (≈ 0.755 µM) | 16 (≈ 24.2 µM) | 0.5 (≈ 0.755 µM) | 2 (≈ 3.02 µM) | ≤ 0.008 | 32 (≈ 48.3 µM) | 0.5 (≈ 0.755 µM) | 2 (≈ 3.02 µM) | 2 (≈ 3.02 µM) | 0.25 (≈ 0.378 µM) | 0.5 (≈ 0.755 µM) | 0.13 (≈ 0.196 µM) | 8 (≈ 12.1 µM) | 0.13 (≈ 0.196 µM) | 0.063 (≈ 0.0951 µM) | 0.5 (≈ 0.755 µM) | 16 (≈ 24.2 µM) | 0.016 (≈ 0.0242 µM) | MIC [21]: 1 µg/mL (≈ 1.51 µM); MIC [22]: 0.016 µg/mL (≈ 0.0242 µM); MIC [23]: 1 µg/mL (≈ 1.51 µM); MIC [24]: 0.031 µg/mL (≈ 0.0468 µM); MIC [25]: 16 µg/mL (≈ 24.2 µM)
4 | COc1cccc(OC)c1-[n+]1c(N)cc(N)nc1SCC1=C(C(=O)[O-])N2C(=O)C(NC(=O)/C(=N\OC(C)(C)C(=O)O)c3csc(N)n3)C2SC1 (stereo not shown) [Compound I-43] | 2 (≈ 2.68 µM) | 0.5 (≈ 0.67 µM) | 4 (≈ 5.36 µM) | 32 (≈ 42.9 µM) | 0.5 (≈ 0.67 µM) | 4 (≈ 5.36 µM) | 0.031 (≈ 0.0416 µM) | > 128 | 0.5 (≈ 0.67 µM) | 2 (≈ 2.68 µM) | 2 (≈ 2.68 µM) | 0.25 (≈ 0.335 µM) | 0.5 (≈ 0.67 µM) | 2 (≈ 2.68 µM) | 4 (≈ 5.36 µM) | 0.25 (≈ 0.335 µM) | 0.25 (≈ 0.335 µM) | 0.5 (≈ 0.67 µM) | 8 (≈ 10.7 µM) | 0.031 (≈ 0.0416 µM) | MIC [21]: 2 µg/mL (≈ 2.68 µM); MIC [22]: 0.25 µg/mL (≈ 0.335 µM); MIC [23]: 1 µg/mL (≈ 1.34 µM); MIC [24]: 0.25 µg/mL (≈ 0.335 µM); MIC [25]: 32 µg/mL (≈ 42.9 µM)
